Measured values as given in US10253039B2, “Inhibitors of bacterial DNA gyrase with efficacy against gram-negative bacteria” (priority 2014, dated 2019).
Converted amounts (≈) assume the structure as drawn. Like-named read-outs stand apart in the source and are kept apart here.

Assays:
Staphylococcus aureus = assay: MIC, microdilution in 96-well plates
E. coli BW25113 = assay: MIC, microdilution in 96-well plates; assay type: cell-based; settings: Escherichia coli, BW25113, E. coli BW25113, read-out: MIC
In short: (§1)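 Growth inhibition was scored after overnight culture (16-18 hours, 37° C., shaking) by looking for turbidity; the first clear well in a triplicate 2-fold compound series defined the MIC. Strains were inoculated at 1:10000 into LB.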

Pseudomonas aeruginosa = assay: MIC, microdilution in 96-well plates; assay type: cell-based; settings: read-out: MIC
In short: as §1

Edwardsiella tarda = assay: MIC, microdilution in 96-well plates; assay type: cell-based; settings: read-out: MIC
In short: as §1

Enterobacter aerogenes = assay: MIC, microdilution in 96-well plates; assay type: cell-based; settings: Klebsiella aerogenes, Enterobacter aerogenes, read-out: MIC
In short: as §1

Acinetobacter baumannii = assay: MIC, microdilution in 96-well plates; assay type: cell-based; settings: read-out: MIC
In short: as §1

Shigella flexneri = assay: MIC, 20-strain panel; assay type: cell-based; settings: Table 7, separate set of experiments
In short: as §1

E. coli MG1655 = assay: MIC, 20-strain panel; assay type: cell-based; settings: Escherichia coli, MG1655, E. coli MG1655; Table 7, separate set of experiments; read-out: MIC
In short: as §1

[1] = tested on: Salmonella enterica subsp. enterica typhimurium; assay: MIC, 20-strain panel; assay type: cell-based; settings: Salmonella enterica subsp. enterica typhimurium, Table 7, separate set of experiments
In short: as §1

[2] = tested on: Staphylococcus epidermidis; assay: MIC, 20-strain panel; assay type: cell-based; settings: Table 7, separate set of experiments, read-out: MIC
In short: as §1

[3] = tested on: Staphylococcus aureus subsp. aureus; assay: MIC, 20-strain panel; assay type: cell-based; settings: Staphylococcus aureus subsp. aureus, Table 7, separate set of experiments, read-out: MIC
In short: as §1

[4] = tested on: Klebsiella pneumoniae subsp. pneumoniae; assay: MIC, 20-strain panel; assay type: cell-based; settings: Klebsiella pneumoniae subsp. pneumoniae, Table 7, separate set of experiments, read-out: MIC
In short: as §1

Streptococcus agalactiae = assay: MIC, 20-strain panel; assay type: cell-based; settings: Table 7, separate set of experiments, read-out: MIC
In short: as §1

Enterococcus faecalis = assay: MIC, 20-strain panel; assay type: cell-based; settings: Table 7, separate set of experiments
In short: as §1

[5] = tested on: Morganella morganii subsp. morganii; assay: MIC, 20-strain panel; assay type: cell-based; settings: Morganella morganii subsp. morganii; Table 7, separate set of experiments; read-out: MIC
In short: as §1

Enterococcus faecium = assay: MIC, 20-strain panel; assay type: cell-based; settings: Table 7, separate set of experiments, read-out: MIC
In short: as §1

Bacillus subtilis 168 = assay: MIC, 20-strain panel; assay type: cell-based; settings: Table 7, separate set of experiments, read-out: MIC
In short: as §1

E. coli JW5503 (deltolC) = assay: MIC, 20-strain panel; assay type: cell-based; settings: Escherichia coli, E. coli JW5503 (deltolC); Table 7, separate set of experiments
In short: as §1

Streptococcus pyogenes = assay: MIC, 20-strain panel; assay type: cell-based; settings: Table 7, separate set of experiments, read-out: MIC
In short: as §1

Bacillus cereus = assay: MIC, 20-strain panel; assay type: cell-based; settings: Table 7, separate set of experiments, read-out: MIC
In short: as §1

[6] = tested on: Staphylococcus saprophyticus subsp. saprophyticus; assay: MIC, 20-strain panel; assay type: cell-based; settings: Staphylococcus saprophyticus subsp. saprophyticus, Table 7, separate set of experiments, read-out: MIC
In short: as §1

[7] = tested on: E. coli BW25113 ΔtolC cipR isolate GyrA Ser83Leu; assay: MIC against ciprofloxacin-resistant mutant; settings: Escherichia coli, BW25113
Procedure: (§2) A microdilution method in 96-well plates was used and the MIC protocol established by the Clinical Laboratory Standards Institute was followed. From a growing subculture, a 1:10000 inoculum of each strain in Luria-Bertani media was prepared and aliquoted 100 μL in 4 columns of wells, except for the top row wells, which contained 200 μL of inoculum. […] The liquid in each of wells was mixed with a multi-channel pipet and 100 μL was transferred to the next well and mixed. The 2-fold dilution was continued down the 96-well plate until 100 μL was left, which was discarded. The plates were incubated at 37° C. with shaking for 16-18 hours. The MIC was determined as the lowest concentration that inhibited growth and had no turbidity by visual inspection.

Shigella boydii = assay: MIC, microdilution in 96-well plates
Morganella morganii = assay: MIC, microdilution in 96-well plates
[8] = tested on: E. coli BW25113 ΔtolC gyrR isolate GyrA His45Tyr; assay: MIC against gyramide-resistant mutant; settings: Escherichia coli, BW25113
Procedure: as §2

[9] = tested on: ciprofloxacin resistant strains of E. coli; assay: MIC against ciprofloxacin resistant strains compared to parent strain; settings: ratio to MIC of parent strain E. coli BW25113 ΔtolC
Procedure: as §2

[10] = tested on: E. coli BW25113 ΔtolC cipR isolate GyrA Asp87Gly; assay: MIC against ciprofloxacin-resistant mutant; settings: Escherichia coli, BW25113
Procedure: as §2

E. coli DNA gyrase = E. coli DNA gyrase (Escherichia coli, UniProt P0AES4+P0AES6); assay: DNA gyrase gel shift assay; settings: IC50 against E. coli DNA gyrase, WT Gyrase
[11] = tested on: E. coli BW25113 ΔtolC gyrR isolate GyrA Pro35Thr; assay: MIC against gyramide-resistant mutant; settings: Escherichia coli, BW25113
Procedure: as §2

[12] = tested on: E. coli BW25113 ΔtolC gyrR isolate GyrB Thr508Met; assay: MIC against gyramide-resistant mutant; settings: Escherichia coli, BW25113
Procedure: as §2

[13] = tested on: gyramide A resistant mutants of E. coli; assay: MIC against gyramide A resistant mutants compared to parent strain; settings: ratio to MIC of parent strain E. coli BW25113 ΔtolC
Procedure: as §2

[14] = Table 7, separate set of experiments

Sequence of E. coli DNA gyrase (P0AES4 whole entry, one chain of several): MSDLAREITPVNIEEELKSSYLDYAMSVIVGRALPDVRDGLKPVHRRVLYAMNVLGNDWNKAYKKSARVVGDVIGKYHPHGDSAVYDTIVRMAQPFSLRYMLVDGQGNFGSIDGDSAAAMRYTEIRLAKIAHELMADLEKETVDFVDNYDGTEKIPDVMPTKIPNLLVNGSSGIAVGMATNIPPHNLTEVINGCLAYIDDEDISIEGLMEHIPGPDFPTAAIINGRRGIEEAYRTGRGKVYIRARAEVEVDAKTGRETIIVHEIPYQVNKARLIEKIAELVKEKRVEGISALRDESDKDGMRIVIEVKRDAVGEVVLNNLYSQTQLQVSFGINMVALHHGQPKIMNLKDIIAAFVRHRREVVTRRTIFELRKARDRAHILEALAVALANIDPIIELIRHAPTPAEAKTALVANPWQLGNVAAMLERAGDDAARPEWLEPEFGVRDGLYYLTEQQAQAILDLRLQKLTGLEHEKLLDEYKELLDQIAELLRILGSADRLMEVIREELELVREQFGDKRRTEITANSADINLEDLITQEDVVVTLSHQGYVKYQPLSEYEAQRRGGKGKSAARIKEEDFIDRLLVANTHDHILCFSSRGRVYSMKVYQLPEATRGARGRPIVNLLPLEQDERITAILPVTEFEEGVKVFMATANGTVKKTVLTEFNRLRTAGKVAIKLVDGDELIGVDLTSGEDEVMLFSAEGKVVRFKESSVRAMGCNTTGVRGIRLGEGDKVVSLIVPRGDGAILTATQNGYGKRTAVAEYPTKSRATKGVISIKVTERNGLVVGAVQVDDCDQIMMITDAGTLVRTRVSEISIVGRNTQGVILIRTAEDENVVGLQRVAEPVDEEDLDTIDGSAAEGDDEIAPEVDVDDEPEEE

N#Cc1cccc(S(=O)(=O)N[C@@H]2CCN(Cc3ccc(-c4ccccc4)cc3)C2)c1 [Gyramide C2, gyramide C2]
MIC (Staphylococcus aureus; with PAβN (60 μM)): 40 µM (≈ 16.7 µg/mL)
MIC (Staphylococcus aureus; without PAβN): 160 µM (≈ 66.8 µg/mL)
MIC (E. coli BW25113; [14]): 16 mg/L
MIC (E. coli BW25113; without PAβN): 20 µM
MIC (Pseudomonas aeruginosa; [14]): > 16 mg/L
MIC (Pseudomonas aeruginosa; with PAβN (60 μM)): 20 µM
MIC (Pseudomonas aeruginosa; without PAβN): > 640 µM
MIC (Edwardsiella tarda; [14]): 16 mg/L
MIC (Edwardsiella tarda; with PAβN (60 μM)): 20 µM
MIC (Edwardsiella tarda; without PAβN): > 640 µM
MIC (Enterobacter aerogenes; [14]): > 16 mg/L
MIC (Enterobacter aerogenes; with PAβN (60 μM)): 10 µM
MIC (Enterobacter aerogenes; without PAβN): > 640 µM
MIC (Acinetobacter baumannii; [14]): > 16 mg/L
MIC (Acinetobacter baumannii; with PAβN (60 μM)): 40 µM
MIC (Acinetobacter baumannii; without PAβN): > 640 µM
MIC (Shigella flexneri): 8 mg/L (≈ 19.2 µM)
MIC (E. coli MG1655): 16 mg/L (≈ 38.3 µM)
MIC [1]: 2 mg/L (≈ 4.79 µM)
MIC [2]: > 16 mg/L
MIC [3]: > 16 mg/L
MIC [4]: > 16 mg/L
MIC (Streptococcus agalactiae): > 16 mg/L
MIC (Enterococcus faecalis): > 16 mg/L
MIC [5]: > 16 mg/L
MIC (Enterococcus faecium): > 16 mg/L
MIC (Bacillus subtilis 168): > 16 mg/L
MIC (E. coli JW5503 (deltolC)): 0.015 mg/L (≈ 0.0359 µM)
MIC (Streptococcus pyogenes): > 16 mg/L
MIC (Bacillus cereus): > 16 mg/L
MIC [6]: > 16 mg/L
MIC [7]: 0.4 µM (≈ 0.167 µg/mL)
MIC (Shigella boydii; with PAβN (60 μM)): 1.25 µM (≈ 0.522 µg/mL)
MIC (Shigella boydii; without PAβN): 80 µM (≈ 33.4 µg/mL)
MIC (Morganella morganii): > 640 µM
MIC (Morganella morganii; without PAβN): >640 µM
MIC [8]: > 25.6 µM
MIC against ciprofloxacin resistant strains compared to the parent strain [9]: 4-8 times
MIC [10]: 0.8 µM (≈ 0.334 µg/mL)
IC50 (E. coli DNA gyrase; Average of 3 trials): 0.122 ± 0.0392 µM
IC50 (E. coli DNA gyrase; Trial 1): 0.0845 µM
IC50 (E. coli DNA gyrase; Trial 2): 0.119 µM
IC50 (E. coli DNA gyrase; Trial 3): 0.163 µM
MIC [11]: 25.6 µM (≈ 10.7 µg/mL)
MIC [12]: 25.6 µM (≈ 10.7 µg/mL)
MIC against gyramide A resistant mutants compared to the parent strain [13]: > 200 times
